Assay results from patent US20210254000A1, “PROCESS FOR PRODUCING A T CELL COMPOSITION” (Juno Therapeutics, Inc., priority 2017, published 2021).
Like-named read-outs stand apart in the source and are kept apart here.

Columns and labels:
[1] = tested on: Ribo-S6 phosphorylation; test: Inhibition of ribosomal protein S6 phosphorylation in stimulated primary human T cells (flow cytometry); assay type: cell-based
Procedure: The dose effect of exemplary mTOR kinase inhibitors in primary human T cells was assessed by monitoring inhibition of ribosomal protein S6.
CD4+ and CD8+ T cells were isolated by immunoaffinity-based enrichment from leukapheresis samples from human donor subjects. Isolated CD4+ and CD8+ T cells were mixed 1:1 and stimulated with anti-CD3/anti-CD28 magnetic beads in the presence of increasing concentrations of an mTOR kinase inhibitor, PI-103, Compound 155, Compound 63, or Compound 246. The T cell cultures were incubated overnight (approximately 16 hr) at 37° C. Following incubation in the presence of PI-103, Compound 155, Compound 63, or Compound 246, T cells were assessed for intracellular S6 phosphorylation and co-stained for surface expression of CD4 or CD8, by flow cytometry.

[2] = tested on: phospho-S6; test: Antigen-dependent CAR signaling (phospho-S6) in expanded CAR-T cells; assay type: cell-based, human; conditions: cells expanded with 200 nM PI-103 or 1 μM Compound 63, washed; 20 hours co-culture 1:1
Procedure: (§1) Separate compositions of CD4+ and CD8+ cells were isolated from three human donors, activated and transduced with a viral vector encoding an anti-CD19 CAR substantially as described in Example 2. After transduction, the CD4+ and CD8+ T cells derived from each donor were separately incubated for 8 days in the presence of a mTOR kinase inhibitor to expand T cells substantially as described in Example 2, except in the presence of 200 nM PI-103, 1 μM Compound 63, or with DMSO vehicle or media only controls. CD4+ and CD8+ T cells from each donor were then separately harvested, formulated, and cryofrozen. The cryofrozen engineered CD4+ and CD8+ T cells were thawed, washed to remove compound, and cells from the same donor were then combined at a ratio of 1:1 viable CD4+/CAR+ to viable CD8+/CAR+ T cells to produce an expanded anti-CD19 CAR-T cell composition containing CD4+ and CD8+ T cells. Functional activities of the generated anti-CD19 CAR-T cell compositions were assessed.
Antigen-dependent signaling of CAR-T cells among generated anti-CD19 CAR-T cell compositions was assessed by monitoring activation of phospho-S6. […] After 20 hours, cells were assessed, for intracellular S6 phosphorylation and co-stained for surface expression of CD4 or CD8, by flow cytometry.

[3] = tested on: CD19-expressing target cells; test: Cytolytic activity of CAR-T cells (mixed CD4+/CD8+ process); assay type: cell-based, human; conditions: CAR-T cells prepared with 2 μM PI103 or 1 μM Compound 63; freshly thawed or day 14; 3:1 effector to target
Procedure: (§2) Separate compositions of CD4+ and CD8+ cells were selected from isolated PBMCs from a leukapheresis sample from the same human donor by immunoaffinity based selection, and the selected cell compositions were cryofrozen. The separate compositions of CD4+ and CD8+ T cells were subsequently thawed and mixed at a ratio of 1:1 of viable CD4+ T cells to viable CD8+ T cells. In this study, the mixed CD4+ and CD8+ cell populations were incubated in the presence of Compound 63, PI103 or no inhibitor (DMSO vehicle control) beginning at the initiation of stimulation. In more detail, the mixed CD4+ and CD8+ T cell composition was stimulated (in the presence or absence of an inhibitor, as indicated) in the presence of paramagnetic polystyrene-coated beads with attached anti-CD3 and anti-CD28 antibodies for between 18 to 30 hours, and were then transduced with a lentiviral vector encoding an anti-CD19 CAR. […]
Cytolytic activity of the generated CAR-T cells was assessed by culturing the generated CAR-T cells, either freshly thawed or at day 14 of restimulation from above, with CD19-expressing target cells at a 3:1 effector to target ratio. Target cell death was quantitated over time. The tumor cell growth area under the curve (AUC) of signal over time for each concentration was determined. A killing index was calculated as the inverse of the area under the tumor cell growth curve (1/AUC).

[4] = tested on: anti-CD19 CAR-T cells; test: CAR-specific expansion with anti-idiotype antibody conjugated beads; assay type: cell-based, human; conditions: anti-idiotype beads 1:1, 15 days; relative to media only
Procedure: as §1, with “The cryofrozen engineered CD4+ and CD8+ T cells were thawed, washed to remove compound, and cells from the same donor were then combined at a ratio of 1:1 viable CD4+/CAR+ to viable CD8+/CAR+ T cells to produce an expanded anti-CD19 CAR-T cell composition containing CD4+ and CD8+ T cells.” left out
The ability of the cells to expand following stimulation of the CAR was assessed by incubating cells of the generated anti-CD19 CAR-T cell compositions with beads surface conjugated with an anti-idiotype antibody specific to the anti-CD19 CAR. […] The total live T cells per well was determined by counting cells in the cultures every 5 days (FIG. 8A). The mean area under the curve (AUC) as a function of T cell number over time was calculated relative to the AUC of cells expanded with media only (FIG. 8B).

[5] = tested on: caspase 3; test: Intracellular caspase 3 in thawed CAR-T cells prepared with inhibitor; assay type: cell-based, human; conditions: thawed CAR-T cells prepared with 1 μM Compound 63 vs DMSO; three donors
Procedure: as §2, with “CAR. The CAR contained an scFv antigen-binding domain specific for CD19 (derived from FMC63), a CD28 transmembrane region, a 4-1BB costimulatory signaling region, and a CD3-zeta derived intracellular signaling domain. The cells were then expanded in the presence of cytokines typically for approximately 6-7 days.” for “CAR.”
The cells were assessed by flow cytometry for levels of the cell surface markers and levels of pro-apoptotic marker, intracellular caspase 3.

[6] = tested on: anti-CD19 CAR-T cells; test: Serial stimulation assay with irradiated K562-CD19 target cells; assay type: cell-based, human; conditions: four rounds of restimulation with K562-CD19 cells; relative to media only
Procedure: as §1, with “The cryofrozen engineered CD4+ and CD8+ T cells were thawed, washed to remove compound, and cells from the same donor were then combined at a ratio of 1:1 viable CD4+/CAR+ to viable CD8+/CAR+ T cells to produce an expanded anti-CD19 CAR-T cell composition containing CD4+ and CD8+ T cells.” left out
The ability of cells to expand ex vivo following repeated stimulations in some aspects can indicate capacity of CAR-T cells to persist (e.g., following initial activation) and/or is indicative of function in vivo (Zhao et al. (2015) Cancer Cell, 28:415-28). […] Every 3-4 days, T cells were harvested, counted, and restimulated with new target cells using the same culture conditions after resetting cell number to initial seeding density for each round. […] The population doublings (FIG. 7A) and area under the curves (AUC) as a function of population doublings over time relative to AUC of cells expanded with media only (FIG. 7B) were determined.

[7] = Homo sapiens, T-cell, CD8+ T cells, read-out: IC50 for inhibition of Ribo-S6 phosphorylation, CD8
[8] = Homo sapiens, CD4+ T cells, read-out: IC50 for inhibition of Ribo-S6 phosphorylation, CD4
[9] = T-cell, primary human CD4+/CD8+ T cells mixed 1:1, anti-CD3/anti-CD28 beads, approximately 16 hr, read-out: IC50 for the inhibition of S6 phosphorylation in the T cells

Compound: Oc1cccc(-c2nc(N3CCOCC3)c3oc4ncccc4c3n2)c1 [PI-103, reference compound]
- IC50 [1, 7]: 88.4 nM
- IC50 [1, 8]: 121 nM
- IC50 [1, 9]: ~100 nM
- phospho-S6 staining after antigen stimulation vs DMSO vehicle or media only [2]: similar
- target cell killing (killing index 1/AUC) compared to CAR-T cells prepared with DMSO [3]: improved target cell killing
- mean AUC of live T cell number over time compared to DMSO vehicle [4]: larger mean AUC

Compound: CC(C)c1ccccc1-n1c(=O)[nH]c2c(C(N)=O)nc(-c3cccc(O)c3)nc21 [Compound 63, 2-(3-Hydroxyphenyl)-9-(2-isopropylphenyl)-8-oxo-8,9-dihydro-7H-purine-6-carboxamide]
- IC50 [1, 7]: 503 nM
- IC50 [1, 8]: 468 nM
- IC50 [1, 9]: ~500 nM
- phospho-S6 staining after antigen stimulation vs DMSO vehicle or media only [2]: similar
- levels of pro-apoptotic marker intracellular caspase 3 [5]: decreased levels
- target cell killing (killing index 1/AUC) compared to CAR-T cells prepared with DMSO [3]: improved target cell killing
- mean AUC of live T cell number over time compared to DMSO vehicle [4]: larger mean AUC
- mean AUC of population doublings compared to T cells expanded with PI-103 or DMSO vehicle [6]: larger mean AUC
